Values of other authors, collected in US20060177860A1, “Genetic markers in the HLA-DQBI gene associated with an adverse hematological response to drugs” (priority 2005, published 2006).

Details: as taught by U.S. Pat. No. 5,312,819

O=C1O[C@H]([C@@H](O)CO)C(O)=C1O [L-ascorbic acid]
effect of radical scavenger on formation of free radicals of clozapine: reduces the formation of free radicals of clozapine
